From patent US9452185B2, “Mesenchymal stem cells and supports for tissue regeneration, repair and reconstruction” (THE TEXAS A&M UNIVERSITY SYSTEM, priority 2009, dated 2016)
“Also recorded” adds a separate entry of the source.

Experiments:
Assay type in all cases: cell-based, human
hMSCs = assay: Alkaline phosphatase (ALP) activity of hMSCs in osteogenic media
Experimental: For non-mineralizing osteogenic differentiation, hMSCs were plated in 12-well plates at 100 cells cm^−2. Upon reaching about 70% confluency, the media was changed to osteogenic base media (OBM) containing 50 μg mL^−1 ascorbic acid and 5 mM β-glycerol phosphate and either GW9662 or DMSO. Media was changed every 2 days for 8-10 days following measurement of ALP activity. For this purpose, the monolayer was washed with PBS and then with ALP reaction buffer (100 mM Tris-HCl, pH 9, containing 100 mM KCl and 1 mM MgCl2). One half mL of ALP buffer then 0.5 mL p-nitrophenol phosphate (PNPP) was rapidly added to the wells. ALP activity was measured as the rate of PNPP conversion to p-nitrophenolate by monitoring the absorbance at 405 nm every 30 seconds for 9 minutes using a plate reader. The rates were normalized against cell number and statistically analyzed using one-way analysis of variance (ANOVA) and Tukey post test for multiple comparisons or by Student's t-test, for single, unrelated comparisons.
Early osteogenic differentiation and alkaline phosphatase assays. MSCs were plated in 6-well plates at an initial plating density of 100 cells per cm^2 and cultured in standard complete media for 6 days until semi-confluence (approximately 5,000 cells per cm^2). Osteogenic base media consisting of complete media containing 5 mM β-GP and 50 μg mL^−1 ascorbate-2-phosphate and the appropriate inhibitor or vehicle was then used to induce early osteogenic differentiation. Assays were allowed to proceed for 8-10 days with changes of media every 2 days. ALP assays were performed as previously described (Gunn et al., 2006, Stem Cells 24:986-991).
(§1) In order to characterize the influence of 7AIPM on osteogenic differentiation, hMSC's from two donors were cultured as described elsewhere herein with the addition of varying concentrations of the compound or vehicle to the media. Samples of the media were collected daily for analysis. These samples were analyzed for the presence of OPG and Dkk-1 using ELISA. Alkaline phosphatase activity of the monolayers and cell numbers were measured using a spectrophotometer.

osteoprotegerin (OPG) = assay: OPG secretion by ELISA; conditions: 7AIPM in osteogenic culture
Experimental: as §1, with “ELISAs. ELISA for CXCL6, Dkk-1, GROa, GRO13, and OPG were carried out by using nonbiotinylated polyclonal capture antibodies and biotinylated detection antibodies that were commercially acquired on coated 96-well plates The biotinylated […] antibodies were detected by using horseradish peroxidase-conjugated streptavidin and TMB substrate. ELISA for IL-lb were performed by using commercially acquired kits. In” for “In”

Dkk-1 = Dkk-1 secretion by ELISA; conditions: 7AIPM in osteogenic culture
Experimental: as §1, with “ELISAs. ELISA for CXCL6, Dkk-1, GROa, GRO13, and OPG were carried out by using nonbiotinylated polyclonal capture antibodies and biotinylated detection antibodies that were commercially acquired on coated 96-well plates The biotinylated […] antibodies were detected by using horseradish peroxidase-conjugated streptavidin and TMB substrate. ELISA for IL-lb were performed by using commercially acquired kits. In” for “In”

Row | ALP activity (hMSCs; osteogenic media without dexamethasone, 8 days) | Substance | ALP activity (hMSCs; MSC monolayers, osteogenic medium with increasing doses, four days) | OPG concentration (osteoprotegerin (OPG)) | Dkk-1 concentration (Dkk-1)
1 |  | 7-azaindolyl-pyrazinylmaleimide [7AIPM] | increased; also recorded: biphasic dose dependant effect | increased | decrease
2 | attenuated | Dldc-1: Wnt inhibitor added to block canonical Wnt signaling |  |  | 
